This is an account of results in US4564615A, “Immunoactivator” (SS Pharmaceutical Co., Ltd., priority 1980, dated 1986).

Where a name gives a salt, the structure may show the parent alone.

Data set [1] in a line: Acute toxicity. To be noted: mouse, in vivo, ip; intraperitoneal, male mice, 7 days. From the text:
Typical compounds used in the immunoactivator according to the invention were each suspended in physiological salt solution and intraperitoneally administered into groups of male mice, each consisting of 5 mice, followed by breeding and observing for 7 days.

Data set [2] concerns splenic cells. Description: Action on blastogenesis of splenic cells (3H-thymidine incorporation). The format is cell-based, CDF1 mice (female, 10 weeks old). The procedure:
(1) The splenic cells of CDF1 mice (female, 10 weeks old) were collected and were cultured in a 10% foetal calf serum-added RPMI 1640 medium adding a lectin such as Concanavalin A (Con A) or Lipopolysaccharide (LPS) and a compound of the invention (Compound No. 3 in Table 1), and the blasting effect was determined using as an index incorporation of ^3 H-thymidine into the cultured splenic cells.
(2) The splenic cells of the mouse to which had been added different amounts of Con A or LPS and then 10 μg/ml of the inventive compound (Compound No. 3 in Table 3) were cultured to know the effect on the blasting reaction. […] Further, in order to know whichever lectin is greatly influenced by the compound of the invention for the potentiation, a stimulatory index* was calculated from the results of FIGS. 3a and 3b. […] [formula]

The subject of data set [3] is myeloid cells. Put plainly: Action on production of glanulocytic macrophage colony (CFU-C) at myeloid cell culture. It counts as cell-based, mouse. The procedure: In accordance with the methods of Metcalf* and Stanley et al.**, the myeloid cells of mouse were cultured in soft agar to which a colony stimulating factor (CSF)*** and different amounts of a compound of the invention (Compound No. 3 in Table 1) to investigate the action on the glanulocytic macrophage colony.
**Stanley, E. R., M. Cifone, P. M. Heard & V. Deffendi: J. Exp. Med. 143: 631-647, 1976.
***The mouse serum obtained 6 hours after venous injection of 5 μg of LPS into CDF1 mouse was added in an amount of 0.0125 ml as the colony stimulating factor.

Data set [4] relates to peritoneal macrophages. Description: Action on phagocytosis of peritoneal macrophage. Conditions: for T/C (phagocytosis of macrophage): peritoneal injection. The format is in vivo, CDF1 mice (female, 8 weeks old). The procedure: The action of the inventive compound on the phagocytosis of macrophage was investigated.
CDF1 mice (female, 8 weeks old) were each peritoneally injected with 2 ml of a thioglycolate medium to allow the peritoneal macrophages to be released. Four days after the injection, a compound of the invention (Compound No. 3 in Table 1) was peritoneally injected into each mouse in an amount ranging from 1 μg to 1 mg/mouse. 18 hours after the injection, the mice of each group was peritoneally washed with the Dulbecco phosphate buffer solution to collect the peritoneal macrophages, which were then suspended in a serum-free Dulbecco phosphate buffer solution and the suspension was placed in plastic petri dishes, followed by keeping in a 5% carbonic acid gas culture container at 37° C. for 2 hours to obtain adhesive cells. To the respective petri dishes containing the adhesive cells was added a solution of a germ Saccharomyces cervisiae. After having kept the temperature for 30 minutes, the germ solution was removed, followed by culturing 4 hours, washing, and subjecting to the Giemsa staining. Then, the number of cells phagocytizing the germ were counted under microscope to determine the effect of the compound*.
*M. Ishizuka; S. Fukasawa, T. Masuda, J. Sato, N. Kanbayashi, T. Takeuchi & H. Umezawa; J. Antibiotics 32: 330-339, 1980.

In data set [5] the test system is delayed-type hypersensitivity. Put plainly: Action on delayed-type hypersensitivity (foot sole swelling, SRBC antigen). It counts as in vivo, CDF1 mice (male, 12 weeks old). Conditions: oral; for Thickness of Sole Swelling (± S.D.): 24 hours after second injection. From the text: In order to evaluate an action of compounds of the invention on cellular immunity which plays the most important role on the protection reaction against viral infection, the action was investigated according to the method of Lagrange et al.* using as an index the effect on the delayed-type hypersensitivity in which sheep red blood cells were provided as antigen**.
*Lagrange, P. H., G. B. Mackaness & T. E. Miller: J. Exp. Med., 139: 528-542, 1974.
**Ishizuka, M. T. Matsuda, N. Kanbayashi, S. Fukasawa, T. Takeuchi, T. Aoyagi & H. Umezawa: J. Antibiotics 33: 642-652, 1980.
That is, groups of CDF1 mice (male, 12 weeks old), each group consisting of 5 mice, were each immunized by being subcutaneously injected with 10^8 sheep red blood cells at the soles of right hind leg and were simultaneously orally dosed with 4 μg-1 mg/mouse of a compound of the invention (compound No. 3 in Table 1). Four days after the administration, 10^8 sheep red blood cells were subcutaneously injected into each mouse at the sole of the left hind leg, thereby causing the reaction. 24 hours after the injection, the thickness of the foot sole was measured and degrees of swelling of the soles were compared with one another to judge the action.

Data set [6] relates to antibody-producing cells in the spleen. Put plainly: IgM antibody producing action in mice, dose dependence (antibody-producing cells/spleen, SRBC immunization). It counts as in vivo, CDF1 mice (male, 10 weeks old). To be noted: oral; for Number of antibody-producing cells/spleen (average value): 4 days after administration.
The test system is the same in data set [7]. Description: IgM antibody producing action in mice, time of administration (FIG. 1). It counts as in vivo, CDF1 mice (male, 12 weeks old). The procedure: (ii) Groups of CDF1 mice (male, 12 weeks old), each group consisting of 5 mice, were each venously injected with 1×10^8 sheep red blood cells for immunization. The thus injected mice were each orally dosed with a compound of the invention (compound No. 3 in Table 1) at the same day as of the injection (0 day), 1 day, 2 days and 3 days after the injection in an amount of 100 μg/mouse. Four days after the immunization, the number of antibody-producing cells in the spleen cells of each mouse of each group was determined.

The subject of data set [8] is mouse's spleen cells. Description: Antibody-producing action based on cell culture (Mishell & Dutton), FIG. 2. Conditions: 0.005-20 μg/ml tested; 4 days culture with 1×10^6 sheep red blood cells. From the text: The action of a compound of the invention on the antibody-producing system with respect to sheep red blood cells was investigated on the basis of the mouse's spleen cell culture according to the Mishell & Dutton's method* and its modification**.
**Click, R. E., L. Benck & B. J. Alter: Cellular Immunol. 3: 156-160, 1972.

The nature of data set [9]: Solubility in water of salts. It counts as physicochemical. Conditions: hydrochloride.
[10] abbreviates: Mus musculus, Macrophage, read-out: T/C (CFU-C).

For orientation: LD50 means the dose expected to kill half of the subjects tested. The low end stands for a more toxic substance, the high end for a less toxic substance. For `c1ccc(C2Oc3ccccc3C3SCCN23)cc1` (stereo not shown) [Compound No. 1], in data set [1], the LD50 at 168 h was 500 mg/kg.

Consider `O=Cc1ccc(C2Oc3ccccc3C3SCCN23)cc1` (stereo not shown) [Compound No. 3, 4-(2,3-dihydro-5H,10bH-thiazolo[3,2-c][1,3]benzoxadine-5-yl)benzaldehyde], for which the “Blasting reaction, FIGS. 3a and 3b (in words)” value in data set [2] (10 μg/ml compound, Con A or LSP 0.5-8 μg/ml) is listed as “potentiate the blasting reaction”. Further, the “Stimulatory index Con A vs LPS, FIG. 4 (in words)” value in [2] (10 μg/ml compound, calculated from FIGS. 3a and 3b) is given as “the Con A which is T-cell mitogen is more greatly acted with the compound than the LPS”. In [2] (10 μg/ml, Con A and LPS), the “Blasting reaction caused by the lectins (in words)” value is “accelerate the blasting reaction caused by the lectins including either of Con A and LPS”. Also, the “3H-thymidine incorporation into splenic cells” value in data set [2] (compound 5 μg/ml, Con A (0.5 μg/ml)) turned out to be 2131 cpm/culture; in data set [2] (compound 5 μg/ml, LSP (0.5 μ/ml)), 1068 cpm/culture; in data set [2] (compound 5 μg/ml, no lectin) it was 148 cpm/culture; in data set [2] (compound 10 μg/ml, Con A (0.5 μg/ml)), 9982 cpm/culture; in data set [2] (compound 10 μg/ml, LSP (0.5 μ/ml)) it was 4007 cpm/culture; in data set [2] (compound 10 μg/ml, no lectin) it was 811 cpm/culture. The “3H-thymidine incorporation into splenic cells” value in data set [2] (compound 20 μg/ml, Con A (0.5 μg/ml)) stood at 1267 cpm/culture; in data set [2] (compound 20 μg/ml, LSP (0.5 μ/ml)) it was 665 cpm/culture; in data set [2] (compound 20 μg/ml, no lectin), 105 cpm/culture. Also, in data set [2] (culture free of any lectin), the “Incorporation of 3H-thymidine without lectin (in words)” value is “more or less expedites the incorporation of ^3 H-thymidine into the splenic cells”. The “Number of CFU-C (±S.D.)” value in data set [3] (0.001 μg/ml) is reported as 140 ± 6; in data set [3] (0.01 μg/ml) it was 156 ± 9; in data set [3] (0.1 μg/ml) it was 189 ± 3; in [3] (1 μg/ml) it was 221 ± 6; in data set [3] (10 μg/ml), 144 ± 16. Also, in data set [3] (0.1 to 1 μg/ml), the “Production of CFU-C (in words)” value was “remarkably potentiate the production of CFU-C”. Besides, the activity at 0.001 µg/mL in data set [3] (setting [10]) turned out to be 103%. In data set [3] (setting [10]), the activity at 0.01 µg/mL is 115%. The activity at 0.1 µg/mL in data set [3] (setting [10]) is 139%. For the same molecule, the activity at 1 µg/mL in data set [3] (setting [10]) was found to be 163%. For the same molecule, the activity at 10 µg/mL in data set [3] (setting [10]) was 106%. For the same molecule, in [4] (1 μg-100 μg/mouse), the “Phagocytosis of macrophage (in words)” value was “improve the phagocytosis of macrophage”. For the same molecule, the “T/C (phagocytosis of macrophage)” value was found to be 127% in [4] (1 μg/mouse), 133% in data set [4] (10 μg/mouse), 137% in [4] (100 μg/mouse) and 115% in data set [4] (1000 μg/mouse). For the same molecule, the “Delayed-type hypersensitivity vs non-administered control (in words)” value in data set [5] (4 μg to 1 mg/mouse) was “more pronounced potentiation on the delayed-type hypersensitivity than the non-administered control groups”. In addition, the “T/C (sole swelling)” value in [5] (4 μg/mouse) came out at 231%; in data set [5] (16 μg/mouse), 150%; in data set [5] (62 μg/mouse), 181%; in data set [5] (250 μg/mouse) it was 198%; in [5] (1000 μg/mouse), 208%. In addition, the “Thickness of Sole Swelling (± S.D.)” value in [5] (4 μg/mouse) came out at 14.8 ± 1.1 × 0.1 mm; in data set [5] (16 μg/mouse), 9.6 ± 1.0 × 0.1 mm; in data set [5] (62 μg/mouse), 11.6 ± 1.6 × 0.1 mm; in [5] (250 μg/mouse), 12.7 ± 1.7 × 0.1 mm; in [5] (1000 μg/mouse) it was 13.3 ± 1.3 × 0.1 mm. Further, the “Antibody production (in words)” value in data set [6] (100-400 μg/mouse) is listed as “potentiate the antibody production”. The “T/C (antibody-producing cells)” value was found to be 106% in [6] (0.4 μg/mouse); 104% in data set [6] (1.6 μg/mouse); 91% in [6] (6.2 μg/mouse); 84% in [6] (25 μg/mouse); 191% in data set [6] (100 μg/mouse); 148% in data set [6] (400 μg/mouse). For the same molecule, the “Number of antibody-producing cells/spleen (average value)” value is recorded as 221,130 in data set [6] (0.4 μg/mouse); 217,890 in [6] (1.6 μg/mouse); 189,216 in [6] (6.2 μg/mouse); 176,040 in data set [6] (25 μg/mouse); 398,520 in data set [6] (100 μg/mouse); 308,610 in data set [6] (400 μg/mouse). Moreover, in [7] (100 μg/mouse oral), the “Time of administration after stimulation of antigen giving maximum potentiation” value lay within 1 to 2 days. Also, the “Number of antibody-producing cells over non-administered groups (in words, FIG. 1)” value in data set [7] (100 μg/mouse oral at day 0, 1, 2 or 3 after immunization) is “increased numbers of antibody-producing cells over the non-administered groups”. The “Concentration range of significant potentiation of the antibody-producing action (FIG. 2)” value in data set [8] is 0.3 to 5 µg/mL.

Regarding `O=Cc1ccc(C2Oc3ccccc3C3SCCN23)cc1` (stereo not shown) [hydrochloride of the compound No. 3, 4-(2,3-dihydro-5H,10bH-thiazolo[3,2-c][1,3]benzoxadine-5-yl)benzaldehyde (Compound No. 3) hydrochloride], the “Solubility in water or physiological salt solution (in words)” value in [9] is recorded as “soluble in water or physiological salt solution”.
